Test results as given in patent publication US20240026314A1, “POLYPEPTIDES FOR USE IN THE SYNTHESIS OF BIOACTIVE PHENOLIC COMPOUNDS” (priority 2020, published 2024).
Read-outs that look alike come from different tables or passages of the source.

Assays:
CsOMT21 = experiment: O-methyltransferase enzyme assay with recombinant CsOMT21; type: biochemical, Cannabis sativa; settings: 1 mM substrate, [14C]-SAM, 30 min at 37° C.
CsOMT6 = experiment: O-methyltransferase enzyme assay with recombinant CsOMT6; type: biochemical, Cannabis sativa; settings: 1 mM substrate, [14C]-SAM, 30 min at 37° C.
CsOMT1 = experiment: O-methyltransferase enzyme assay with recombinant CsOMT1; type: biochemical, Cannabis sativa; settings: compound as substrate, 1 mM, [14C]-SAM methyl donor, relative to dihydroresveratrol
[1] = test system: colon cancer cell line SW480; settings: cited from earlier work
[2] = test system: human leukemia cell line HL60; settings: cited from earlier work
sarcoma S-180 = settings: cited from earlier work
[3] = substrate: Oc1ccc(CCc2cc(O)cc(O)c2)cc1; experiment: Enzyme kinetics (Michaelis-Menten) of recombinant CsOMT1 O-methyltransferase with dihydroresveratrol as substrate (FIG. 6C); type: biochemical, Cannabis sativa; settings: other: substrate dihydroresveratrol, standard assay conditions (50 mM Tris-HCl, pH 7.5, 5 mM MgCl2, 10% glycerol, 37° C, [14C]-SAM methyl donor), non-linear regression, Michaelis-M
Experimental: FIG. 6. Enzymatic methylation activity of CsOMT1. (A) Reaction catalyzed by CsOMT1. (B) Representative chromatogram showing the reaction products resolved by HPLC that illustrates the separation of the methylated dihydroresveratrol from its corresponding substrate (dihydroresveratrol, DHR). The identity of 3-O-methyl-dihydroresveratrol (pinobistilbene) was structurally determined by NMR. (C) Kinetic analysis of CsOMT1. Recombinant CsOMT1 was assayed under standard assay conditions at the indicated concentrations of dihydroresveratrol. Kinetic parameters were determined by non-linear regression analysis using the Michaelis-Menten kinetics model of the SigmaPlot 12.3 software.
Expression of recombinant prenyltransferases in E. coli. In typical aspects, open reading frames encoding soluble aromatic prenyltransferases from bacteria or fungi, for example NphB, HypSC, CloQ, NovQ, Fur7, or PpzP are synthesized commercially. […]
Recombinant protein expression of CsOMTs in E. coli. Open reading frames corresponding to O-methyltransferases from C. sativa are synthesized by commercially. […]
O-methyltransferase enzyme assays. […] The enzymatic products are extracted with four volumes of ethyl acetate and quantified using a scintillation counter. […] The eluted products are detected by absorption at the 210-350 nm range and quantified relative to authentic standards. […]

Q: Which methylation of substrate (CsOMT21) does the source give for `O=c1cc(-c2ccc(O)c(O)c2)oc2cc(O)cc(O)c12` [luteolin] here?
A: Its methylation of substrate is “able to methylate”.

Q: With `O=c1c(O)c(-c2ccc(O)c(O)c2)oc2cc(O)cc(O)c12` [quercetin] as the molecule, how does the methylation of substrate (CsOMT21) read?
A: The methylation of substrate was “able to methylate”.

Q: What about the methylation of substrate (CsOMT6) of the same molecule?
A: The methylation of substrate was “preferred methylation”.

Q: Which “O-methyltransferase activity relative to that with DHR” value (CsOMT1) does the source give for `COc1cc(O)cc(CCc2cccc(O)c2)c1` [batatasin III] here?
A: The value was “about 25%”.

Q: For `CC(C)=CCc1cc(/C=C/C(=O)O)cc(CC=C(C)C)c1O` [artepillin C], which apoptotic events [1] is on record?
A: The apoptotic events was “induce apoptotic events”.

Q: And the apoptotic events [2]?
A: The apoptotic events was “induce apoptotic events”.

Q: And the tumor growth (sarcoma S-180; mouse, in vivo, po)?
A: The tumor growth was “significant reduction in tumor growth”.

Q: Which apoptotic events ([1]; SW480 (Akao et al 2008)) does the source give for `CC(C)=CCc1cc(/C=C/C(=O)O)ccc1O` [drupanin] here?
A: The apoptotic events was “induce apoptotic events”.

Q: What about the apoptotic events ([2]; HL60 (Akao et al 2008)) of the same molecule?
A: The apoptotic events was “induce apoptotic events”.

Q: And the tumor growth (sarcoma S-180; oral administration, mice with sarcoma S-180 (Mishima et al 2005))?
A: Its tumor growth is “significant reduction in tumor growth”.

B1: CsOMT1 (recombinant O-methyltransferase, SEQ ID NO: 7, PK03555; 6×His-tagged, expressed in E. coli) (Cannabis sativa) (protein)
chain: MEADGEDAVLRGQVEIWKYMLSFADSMALKCAVELQLADIIHSHTSPITLSQIASAIPGATSPDLSCLARIMRLLVRRRIFTQHQKPKSDGEEEEALYGPTHSSRWLLTKTNDHDQLTLAPMILMENDPRLMAPWHCFSRCVKEGGVAFKKAHNGQSIWEFGAENPEINKLFNDAMECTAKVVMKAILSHYSDGGFSDIKSMVDVGGGTGGSISEIVRSYPHIKGINFDLPHVIATAPPYSGVSHVGGDMFRSVPTADAIFMKWILHDWSDEDCVKILKNCRKAIAEESGKVIIVESVLEEESNNNNNNNEVFGDTALMLDLVMVAHTTGGKERTQKQWKTILEQGGFPRYNFIKIKALPSIIEAYPN
Q: For B1, which Km [3] is on record?
A: The Km was 22.2 ± 4.6 µM.
